# From patent US20150225369A1, “DDR2 INHIBITORS FOR THE TREATMENT OF OSTEOARTHRITIS” (Merck Patent GmbH, priority 2012, published 2015)
# Biological target: T1, HEK293 transfected with human DDR2 (Homo sapiens, UniProt Q16832)
# T1 construct: expressed in transfected cells; host or cells: HEK293 (PLT460F_(DDR2)-P7-1)
# T1 sequence (Q16832 22-855): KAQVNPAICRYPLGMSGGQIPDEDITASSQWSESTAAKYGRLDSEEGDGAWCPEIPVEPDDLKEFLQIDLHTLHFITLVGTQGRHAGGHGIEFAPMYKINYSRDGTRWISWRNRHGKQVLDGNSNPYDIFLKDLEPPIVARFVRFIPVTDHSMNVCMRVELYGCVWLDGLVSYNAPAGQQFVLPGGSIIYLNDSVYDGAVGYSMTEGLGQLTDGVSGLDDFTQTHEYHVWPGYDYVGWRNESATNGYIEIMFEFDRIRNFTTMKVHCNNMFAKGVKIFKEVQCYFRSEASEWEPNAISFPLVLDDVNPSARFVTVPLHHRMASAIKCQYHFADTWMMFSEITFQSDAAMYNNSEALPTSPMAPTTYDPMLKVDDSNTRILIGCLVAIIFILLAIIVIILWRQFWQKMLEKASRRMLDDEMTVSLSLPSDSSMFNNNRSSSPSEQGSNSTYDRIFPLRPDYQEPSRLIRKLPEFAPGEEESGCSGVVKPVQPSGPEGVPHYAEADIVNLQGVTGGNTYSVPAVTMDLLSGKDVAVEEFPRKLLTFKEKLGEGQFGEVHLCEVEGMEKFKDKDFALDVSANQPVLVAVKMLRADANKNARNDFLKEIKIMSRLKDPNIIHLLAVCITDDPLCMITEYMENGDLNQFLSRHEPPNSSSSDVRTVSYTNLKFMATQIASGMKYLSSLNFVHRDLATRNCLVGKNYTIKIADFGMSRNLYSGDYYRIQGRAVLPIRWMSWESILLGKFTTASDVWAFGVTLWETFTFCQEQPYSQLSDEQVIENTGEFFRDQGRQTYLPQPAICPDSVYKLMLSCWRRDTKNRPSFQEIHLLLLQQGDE
# Assay: Phospho-DDR2 cellular assay (collagen II induced DDR2 phosphorylation, ELISA)
# Type: cell-based
# Conditions: cellular phospho-DDR2; read-out: IC50 [p-DDR2]
# Protocol: Assays were performed in a 384 well plate format, using cell line HEK293 transfected with human DDR2 (PLT460F_(DDR2)-P7-1)
# Cells were seeded at a density of 10'000 cells/well in 384well poly-D-lysine coated Black/clear plate (Cellcoat Greiner) and incubated in DMEM medium in the presence of 10% fetal bovine serum at 37° C., 5% CO2 for 48 h. Medium was replaced by serum-free medium and cells were incubated at 37° C., 5% CO2 for 8 h. Compound to be tested in 5% DMSO or 5% DMSO and 50 μg/ml of chicken collagen II were added and cells were incubated at 37° C., 5% CO2 for 16 h
# Cells were rinsed with ice-cold PBS, lysed with lysis buffer (M-PER Thermo #78501) for 30 min at room temperature and centrifuged for 1 min at 1000 RPM. In parallel, White High binding 384 well plates (Corning) were coated with mouse anti-human DDR2 capture antibody (R&D Systems kit DuoSet IC Human phospho-DDR2 ELISA), overnight at RT.
# An aliquot of cell lysate was transferred to the coated plates and incubated for 2 h at RT. Plates were washed and mouse anti-phospho-tyrosine detection antibody (R&D Systems kit DuoSet IC Human phospho-DDR2 ELISA) conjugated to horse radish peroxidase (HRP) was added for 2 h at RT. Plates were washed and chemiluminescent substrate for HRP (Thermo) was added for 15 min at RT. Luminescence was measured on a luminometer.
row,Structure (SMILES),IC50
1,"O=C(NCc1ccc(Oc2ccnc(C(=O)O)c2)cc1)Nc1ccc(Cl)c(C(F)(F)F)c1 [compound 99, 4-{4-[3-(4-Chloro-3-trifluoromethyl-phenyl)-ureidomethyl]-phenoxy}-pyridine-2-carboxylic acid]",2850 nM
2,"NCCNC(=O)c1cc(Oc2ccc(CNC(=O)Nc3ccc(Cl)c(C(F)(F)F)c3)cc2)ccn1 [compound 148, 4-{4-[3-(4-Chloro-3-trifluoromethyl-phenyl)-ureidomethyl]-phenoxy}-pyridine-2-carboxylic acid (2-amino-ethyl)-amide]",785 nM
3,"CNCCNC(=O)c1cc(Oc2ccc(CNC(=O)Nc3ccc(Cl)c(C(F)(F)F)c3)cc2)ccn1 [compound 149, 4-{4-[3-(4-Chloro-3-trifluoromethyl-phenyl)-ureidomethyl]-phenoxy}-pyridine-2-carboxylic acid (2-methylamino-ethyl)-amide]",925 nM
4,"CNC(=O)c1cc(Oc2ccc(CNC(=O)Nc3cccc(S(C)(=O)=O)c3)cc2C)ccn1 [compound 154, 4-{4-[3-(3-Methanesulfonyl-phenyl)-ureidomethyl]-2-methyl-phenoxy}-pyridine-2-carboxylic acid methylamide]",1250 nM
5,"CNC(=O)c1cc(Oc2ccc(CNC(=O)Nc3cccc(S(N)(=O)=O)c3)cc2)ccn1 [compound 157, 4-{4-[3-(3-Sulfamoyl-phenyl)-ureidomethyl]-phenoxy}-pyridine-2-carboxylic acid methylamide]",500 nM
6,"CNC(=O)c1cc(Oc2ccc(CNC(=O)Nc3cccc(S(=O)(=O)NC(C)C)c3)cc2)ccn1 [compound 158, 4-{4-[3-(3-Isopropylsulfamoyl-phenyl)-ureidomethyl]-phenoxy}-pyridine-2-carboxylic acid methylamide]",100000 nM
7,"CNC(=O)c1cc(Oc2ccc(CNC(=O)Nc3cc(C)c(Cl)cc3N(C)CCN(C)C)cc2)ccn1 [compound 162, 4-[4-(3-{4-Chloro-2-[(2-dimethylamino-ethyl)-methyl-amino]-5-methyl-phenyl}-ureidomethyl)-phenoxy]-pyridine-2-carboxylic acid methylamide]",1600 nM
8,"CNC(=O)c1cc(Oc2ccc(CNC(=O)Nc3cccc(NS(C)(=O)=O)c3)cc2C)ccn1 [compound 167, 4-{4-[3-(3-Methanesulfonylamino-phenyl)-ureidomethyl]-2-methyl-phenoxy}-pyridine-2-carboxylic acid methylamide]",1500 nM
9,"CNC(=O)c1cc(Oc2ccc(CNC(=O)Nc3cc(C(F)(F)F)ccc3CCN)cc2)ccn1 [compound 175, 4-(4-{3-[2-(2-Amino-ethyl)-5-trifluoromethyl-phenyl]-ureidomethyl}-phenoxy)-pyridine-2-carboxylic acid methylamide]",1300 nM
10,"CNC(=O)c1cc(Oc2ccc(CNC(=O)Nc3cc(C(F)(F)F)ccc3CN3CCNCC3)cc2)ccn1 [compound 192, 4-{4-[3-(2-Piperazin-1-ylmethyl-5-trifluoromethyl-phenyl)-ureidomethyl]-phenoxy}-pyridine-2-carboxylic acid methylamide]",1150 nM
11,"CNC(=O)c1cc(Oc2ccc(CNC(=O)Nc3ccc(C)cc3CO)cc2C)ccn1 [compound 196, 4-{4-[3-(2-Hydroxymethyl-4-methyl-phenyl)-ureidomethyl]-2-methyl-phenoxy}-pyridine-2-carboxylic acid methylamide]",17600 nM
12,"CNC(=O)c1cc(Oc2ccc(CNC(=O)Nc3ccccc3CO)cc2C)ccn1 [compound 198, 4-{4-[3-(2-Hydroxymethyl-phenyl)-ureidomethyl]-2-methyl-phenoxy}-pyridine-2-carboxylic acid methylamide]",7500 nM
13,"CNC(=O)Cc1ccc(C(F)(F)F)cc1NC(=O)NCc1ccc(Oc2ccnc(C(=O)NC)c2)c(C)c1 [compound 200, 4-{2-Methyl-4-[3-(2-methylcarbamoylmethyl-5-trifluoromethyl-phenyl)-ureidomethyl]-phenoxy}-pyridine-2-carboxylic acid methylamide]",455 nM
14,"CNC(=O)c1cc(Oc2ccc(CNC(=O)N3C(=O)Cc4ccc(C(F)(F)F)cc43)cc2)ccn1 [compound 205, 2-Oxo-6-trifluoromethyl-2,3-dihydro-indole-1-carboxylic acid 4-(2-methylcarbamoyl-pyridin-4-yloxy)-benzylamide]",1100 nM

# Now those with a lower IC50, led by results:
row,IC50,Structure (SMILES)
1,135 nM,"CNC(=O)c1cc(Oc2ccc(CNC(=O)Nc3cc(C(F)(F)F)ccc3N3CCNCC3)cc2)ccn1 [compound 122, 4-{4-[3-(2-Piperazin-1-yl-5-trifluoromethyl-phenyl)-ureidomethyl]-phenoxy}-pyridine-2-carboxylic acid methylamide]"
2,390 nM,"CNC(=O)c1cc(Oc2ccc(CNC(=O)Nc3cccc(S(C)(=O)=O)c3)cc2)ccn1 [compound 135, 4-{4-[3-(3-Methanesulfonyl-phenyl)-ureidomethyl]-phenoxy}-pyridine-2-carboxylic acid methylamide]"
3,300 nM,"CNC(=O)c1cc(Oc2ccc(CNC(=O)Nc3cc(C)c(Cl)cc3N(C)CCN(C)C)cc2C)ccn1 [compound 164, 4-[4-(3-{4-Chloro-2-[(2-dimethylamino-ethyl)-methyl-amino]-5-methyl-phenyl}-ureidomethyl)-2-methyl-phenoxy]-pyridine-2-carboxylic acid methylamide]"
4,76 nM,"CNC(=O)c1cc(Oc2ccc(CNC(=O)Nc3cc(C(F)(F)F)ccc3N3CCNCC3)cc2C)ccn1 [compound 184, 4-{2-Methyl-4-[3-(2-piperazin-1-yl-5-trifluoromethyl-phenyl)-ureidomethyl]-phenoxy}-pyridine-2-carboxylic acid methylamide]"
5,330 nM,"CNC(=O)c1cc(Oc2ccc(CNC(=O)Nc3cc(C)c(Cl)cc3NC(C)=O)cc2C)ccn1 [compound 186, 4-{4-[3-(2-Acetylamino-4-chloro-5-methyl-phenyl)-ureidomethyl]-2-methyl-phenoxy}-pyridine-2-carboxylic acid methylamide]"
6,41 nM,"CNC(=O)c1cc(Oc2ccc(CNC(=O)Nc3cc(C(F)(F)F)ccc3-n3cncn3)cc2)ccn1 [compound 201, 4-{4-[3-(2-[1,2,4]Triazol-1-yl-5-trifluoromethyl-phenyl)-ureidomethyl]-phenoxy}-pyridine-2-carboxylic acid methylamide]"
7,14 nM,"CNC(=O)c1cc(Oc2ccc(CNC(=O)Nc3cc(C(F)(F)F)ccc3-n3cncn3)cc2C)ccn1 [compound 202, 4-{2-Methyl-4-[3-(2-[1,2,4]triazol-1-yl-5-trifluoromethyl-phenyl)-ureidomethyl]-phenoxy}-pyridine-2-carboxylic acid methylamide]"
8,19 nM,"CNC(=O)c1cc(Oc2ccc(CNC(=O)Nc3cc(C(F)(F)F)ccc3-n3ccnn3)cc2C)ccn1 [compound 203, 4-{2-Methyl-4-[3-(2-[1,2,3]triazol-1-yl-5-trifluoromethyl-phenyl)-ureidomethyl]-phenoxy}-pyridine-2-carboxylic acid methylamide]"
9,38 nM,"CNC(=O)c1cc(Oc2ccc(CNC(=O)Nc3cc(C(F)(F)F)ccc3O)cc2C)ccn1 [compound 204, 4-{4-[3-(2-Hydroxy-5-trifluoromethyl-phenyl)-ureidomethyl]-2-methyl-phenoxy}-pyridine-2-carboxylic acid methylamide]"
10,31 nM,"CNC(=O)c1cc(Oc2ccc(CNC(=O)Nc3cc(C(F)(F)F)ccc3-n3ccnn3)cc2)ccn1 [compound 206, 4-{4-[3-(2-[1,2,3]Triazol-1-yl-5-trifluoromethyl-phenyl)-ureidomethyl]-phenoxy}-pyridine-2-carboxylic acid methylamide]"
11,285 nM,"CNC(=O)c1cc(Oc2ccc(CNC(=O)Nc3cc(C(F)(F)F)ccc3CC(N)=O)cc2C)ccn1 [compound 207, 4-{4-[3-(2-Carbamoylmethyl-5-trifluoromethyl-phenyl)-ureidomethyl]-2-methyl-phenoxy}-pyridine-2-carboxylic acid methylamide]"
